{"source": "paper PMC4865847", "about": "“Putative histidine kinase inhibitors with antibacterial effect against multi-drug resistant clinical isolates identified by in vitro and in silico screens” (Scientific Reports, 2016)", "key": {"[1]": {"test_system": "S. pneumoniae VicK", "set-up": "method as in PMID 25531939", "conditions": "cited from earlier work"}, "[2]": {"test_system": "Gram-positive B. subtilis", "set-up": "method as in PMID 25531939", "conditions": "cited from earlier work"}, "[3]": {"test_system": "Gram negative E. coli DC2", "set-up": "method as in PMID 25531939", "conditions": "cited from earlier work"}, "[4]": {"test_system": "HK NblS (CA domain)", "test": "Differential scanning fluorimetry (DSF), NblS", "format": "binding, Synechococcus sp. PCC 7942", "experimental": "(§1) To monitor protein unfolding, the fluorescent dye Sypro orange was used[26]. Differential scanning fluorimetry (DSF) experiments were conducted in the iCycleriQ Real Time Detection System (Bio-Rad, Hercules, CA). Solutions of 20 μl of 0.1 mg/ml protein (final concentration), 200 μM fragment cocktails or individual fragments (final concentration), 10X sypro orange (final concentration) and buffer (100 mM TrisCl pH 8, 150 mM NaCl) were added to the wells of the 96-well iCycler iQ PCR plate. The plate was heated from 20 to 85 or 99 °C at a heating rate of 1 °C/min. The fluorescent intensity was measured with Ex/Em: 490/530 nm. Prism GraphPad v.5 was used for curve fitting and statistical analysis."}, "[5]": {"molecular_target": "T1, HK WalK (DHp and CA domain) (Streptococcus pneumoniae, UniProt Q8DPL8)", "T1 construct": "WalK (amino acids from 208 to 449); N-terminal His6-3C site of vector pOPINF (own knowledge of the vector); made in house; host or cells: E. coli RIL", "T1 sequence (Q8DPL8 208-449)": "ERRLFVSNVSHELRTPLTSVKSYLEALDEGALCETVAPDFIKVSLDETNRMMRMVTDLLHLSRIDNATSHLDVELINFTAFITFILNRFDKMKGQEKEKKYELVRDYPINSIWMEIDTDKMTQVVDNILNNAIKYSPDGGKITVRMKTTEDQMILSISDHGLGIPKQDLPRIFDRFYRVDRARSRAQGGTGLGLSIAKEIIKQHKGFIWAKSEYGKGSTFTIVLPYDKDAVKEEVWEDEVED", "test": "Differential scanning fluorimetry (DSF), WalK", "format": "binding", "experimental": "as §1"}, "[6]": {"molecular_target": "T2, E. coli PhoR (PhoR^E) (Escherichia coli, UniProt P08400)", "T2 construct": "The catalytic portion (DHp and CA domain) of E. coli PhoR (PhoR^E); made in house; host or cells: E. coli RIL", "T2 sequence (P08400 210-425)": "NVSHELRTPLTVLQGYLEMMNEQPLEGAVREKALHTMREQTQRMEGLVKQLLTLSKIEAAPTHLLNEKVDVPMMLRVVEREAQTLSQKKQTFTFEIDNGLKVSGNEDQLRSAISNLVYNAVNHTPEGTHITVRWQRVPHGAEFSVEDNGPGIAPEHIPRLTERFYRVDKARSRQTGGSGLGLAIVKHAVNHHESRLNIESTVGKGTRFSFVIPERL", "test": "In vitro autophosphorylation kinase assay with γ-32P-ATP, PhoR^E", "format": "biochemical", "conditions": "autophosphorylation, one time point (30 sec), 10% DMSO; read-out: IC50 PhoR^E", "procedure,_shortened": "(§2)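 Histidine kinase (0.12 mg/ml, ≈4 μM) incubated with up to 20 mM fragment in 50 mM Tris HCl pH 8.5, 50 mM KCl, 5 mM MgCl2, 0.5 mM EDTA, 0.1 mM DTT; started with 0.1 μCi/μl γ-32P-ATP (0.03–0.06 μM ATP final). Phosphoprotein quantified by SDS-PAGE and phosphor-imaging, curve-fitted; DMSO controls.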"}, "[7]": {"molecular_target": "T3, S. pneumoniae WalK (Streptococcus pneumoniae, UniProt Q8DPL8)", "T3 construct": "WalK (amino acids from 208 to 449); N-terminal His6-3C site of vector pOPINF (own knowledge of the vector); made in house; host or cells: E. coli RIL", "T3 sequence (Q8DPL8 208-449)": "as the sequence (Q8DPL8 208-449) above", "test": "In vitro autophosphorylation kinase assay with γ-32P-ATP, WalK", "format": "biochemical", "procedure,_shortened": "as §2"}, "[8]": {"test_system": "Staphylococcus aureus", "test": "Antibacterial susceptibility testing (MIC/MBC), S. aureus", "format": "cell-based", "conditions": "Staphylococcus aureus, DSM20231, strain DSM 20231", "experimental": "(§3) Minimal inhibitory concentrations (MICs) were determined following a standard double-dilution method. […] For S. pneumoniae MICs were determined by adapting the standard double-dilution method to anaerobic conditions and of this microorganism (use of Todd Hewitt Yeast extract with 200 U/mL of catalase and continuous monitoring of growth)."}, "[9]": {"test_system": "Staphylococcus epidermidis", "test": "Antibacterial susceptibility testing (MIC/MBC), S. epidermidis", "format": "cell-based", "conditions": "Staphylococcus epidermidis, DSM20044, strain DSM 20044; read-out: MIC S. epidermidis DSM 20044", "experimental": "as §3"}, "[10]": {"test_system": "Escherichia coli", "test": "Antibacterial susceptibility testing (MIC/MBC), E. coli", "format": "cell-based", "conditions": "Escherichia coli, strain CFT 073; read-out: MIC E. coli CFT 073", "experimental": "as §3"}, "[11]": {"molecular_target": "T2, E. coli PhoR (PhoR^E)", "test": "Aggregation analysis by native-PAGE, PhoR^E", "conditions": "2 mM (S5 and S6 5 mM), 10% DMSO", "experimental": "(§4) E. coli PhoR and EnvZ, and S. aureus PhoR ([…], final concentration) were prepared in kinase buffer. […] DMSO in the assays was maintained to a final concentration 10% (v/v). After 30 min of incubation at room temperature Native polyacrylamide gel electrophoresis (Native-PAGE) loading buffer was added and samples loaded. Coomassie blue staining was used for protein visualization."}, "[12]": {"molecular_target": "T4, E. coli EnvZ (Escherichia coli, UniProt P0AEJ4)", "T4 construct": "The catalytic portion (DHp and CA domain) of E. coli PhoR (PhoR^E), E. coli EnvZ; made in house; host or cells: E. coli RIL", "T4 sequence (P0AEJ4 240-440)": "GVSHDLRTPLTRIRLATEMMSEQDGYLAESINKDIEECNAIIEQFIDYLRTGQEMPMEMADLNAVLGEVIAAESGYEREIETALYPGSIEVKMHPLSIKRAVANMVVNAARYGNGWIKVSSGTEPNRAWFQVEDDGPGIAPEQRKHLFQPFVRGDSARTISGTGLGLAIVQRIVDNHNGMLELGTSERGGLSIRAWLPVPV", "test": "Aggregation analysis by native-PAGE, EnvZ", "conditions": "2 mM, 10% DMSO", "experimental": "as §4"}, "[13]": {"molecular_target": "S. aureus PhoR (PhoR^S) (Staphylococcus aureus, UniProt Q2FXN7)", "sequence (Q2FXN7 entry or part of it)": "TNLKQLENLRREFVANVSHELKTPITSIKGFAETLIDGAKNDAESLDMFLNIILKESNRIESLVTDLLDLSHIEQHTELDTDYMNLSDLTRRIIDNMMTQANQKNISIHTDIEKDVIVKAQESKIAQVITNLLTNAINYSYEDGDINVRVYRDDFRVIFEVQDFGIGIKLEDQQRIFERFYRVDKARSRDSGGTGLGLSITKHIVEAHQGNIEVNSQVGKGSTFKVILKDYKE", "test": "Aggregation analysis by native-PAGE, PhoR^S", "conditions": "2 mM (S5 and S6 5 mM), 10% DMSO", "experimental": "as §4"}, "[14]": {"test_system": "S. epidermidis YycG", "set-up": "method as in PMID 24737057", "conditions": "read-out: IC50 S. epidermidis YycG (WalK) autophosphorylation; cited from earlier work"}, "[15]": {"test_system": "Gram positive strains", "conditions": "cited from earlier work"}, "[16]": {"test_system": "E. coli", "set-up": "method as in PMID 25561178", "conditions": "cited from earlier work"}}, "data": [{"compound": "Nc1nc2ccc(Oc3ccc4nc(N)sc4c3)cc2s1", "note": "[Compound 11]", "values": [{"measurement": "IC50", "setting": "[1]", "value": 75, "unit": "µM"}, {"measurement": "MIC Gram positive", "setting": "[2]", "value": "≥ 49", "unit": "µg/mL"}, {"measurement": "MICs for the Gram-positive B. subtilis", "setting": "[2]", "value": "49 to 64", "unit": "µg/mL"}, {"measurement": "MIC Gram negative", "setting": "[3]", "value": "≥ 32", "unit": "µg/mL"}, {"measurement": "MICs for the Gram negative E. coli DC2", "setting": "[3]", "value": "32 to 64", "unit": "µg/mL"}]}, {"compound": "Oc1ccc2c(c1)[nH]c1ccccc12", "note": "[F2, 2-hydroxy-carbazole]", "values": [{"measurement": "increase of NblS Tm", "setting": "[4]", "value": 2.2, "unit": "°C"}, {"measurement": "increase of WalK Tm", "setting": "[5]", "value": 3.9, "unit": "°C"}, {"measurement": "IC50", "setting": "[6]", "value": 300, "unit": "µM"}, {"measurement": "IC50", "setting": "[7]; autophosphorylation, one time point (30 sec), 10% DMSO, read-out: IC50 WalK", "value": "> 2", "unit": "mM"}, {"measurement": "inhibitory capacity for WalK autophosphorylation activity", "setting": "[7]; single concentration 5 mM, 30 sec", "value": "weak inhibitory capacity"}, {"measurement": "MBC", "setting": "[8]; read-out: MBC S. aureus DSM 20231", "value": "> 500", "unit": "µg/mL"}, {"measurement": "MIC", "setting": "[8]; read-out: MIC S. aureus DSM 20231", "value": 31, "unit": "µg/mL"}, {"measurement": "MIC", "setting": "[9]", "value": "> 500", "unit": "µg/mL"}, {"measurement": "MIC", "setting": "[10]", "value": "> 500", "unit": "µg/mL"}, {"measurement": "HK aggregation, PhoR^E", "setting": "[11]", "value": "do not cause HK aggregation"}, {"measurement": "HK aggregation, EnvZ", "setting": "[12]", "value": "do not cause HK aggregation"}, {"measurement": "HK aggregation, PhoR^S", "setting": "[13]", "value": "do not cause HK aggregation"}]}, {"compound": "O=C(O)c1ccc(-c2ccc(/C=C3\\S/C(=N\\c4ccccc4)N(c4ccc(F)cc4)C3=O)s2)cc1", "note": "[H2-81]", "values": [{"measurement": "IC50", "setting": "[14]", "value": 24, "unit": "µM"}, {"measurement": "MIC Gram positive", "setting": "[15]", "value": "≥ 0.75", "unit": "µg/mL"}]}, {"compound": "teixobactin", "values": [{"measurement": "antibacterial effect (MIC) against E. coli", "setting": "[16]", "value": "2 to 25", "unit": "µg/mL"}]}]}
